Results as given in patent US11820728B2, “Carbonyl lipids and lipid nanoparticle formulations for delivery of nucleic acids” (Acuitas Therapeutics, Inc., priority 2017, dated 2023).

Key:
[1] = Determination of pKa of formulated lipids (TNS fluorescence assay in lipid nanoparticles); format: physicochemical; settings: lipid formulated in LNP, 47.5% cationic lipid/10% DSPC/40.8% Cholesterol/1.7% PEG lipid
Procedure: As described elsewhere, the pKa of formulated lipids is correlated with the effectiveness of LNPs for delivery of nucleic acids (see Jayaraman et al, Angewandte Chemie, International Edition (2012), 51(34), 8529-8533; Semple et al, Nature Biotechnology 28, 172-176 (2010)). The preferred range of pKa is ˜5 to ˜7. The pKa of each lipid was determined in lipid nanoparticles using an assay based on fluorescence of 2-(p-toluidino)-6-napthalene sulfonic acid (TNS). Lipid nanoparticles comprising novel lipid or structure (I) or (II)/DSPC/cholesterol/PEG-lipid (50/10/38.5/1.5 or 47.5:10:40.8:1.7 mol %) in PBS at a concentration of 0.4 mM total lipid are prepared using the in-line process as described in Example 1. TNS was prepared as a 100 μM stock solution in distilled water. Vesicles were diluted to 24 μM lipid in 2 mL of buffered solutions containing 10 mM HEPES, 10 mM MES, 10 mM ammonium acetate, and 130 mM NaCl, where the pH ranged from 2.5 to 11. An aliquot of the TNS solution was added to give a final concentration of 1 μM and following vortex mixing fluorescence intensity was measured at room temperature in a SLM Aminco Series 2 Luminescence Spectrophotometer using excitation and emission wavelengths of 321 nm and 445 nm. A sigmoidal best fit analysis was applied to the fluorescence data and the pKa was measured as the pH giving rise to half-maximal fluorescence intensity.
(§1) Tables 3 and 4 provide properties of representative compounds of structure (I) and (II), respectively, which were formulated using the following molar ratio: 47.5% cationic lipid/10% distearoylphosphatidylcholine (DSPC)/40.8% Cholesterol/1.7% PEG lipid (“PEG-DMA” 2-[2-(ω-methoxy(polyethyleneglycol2000)ethoxy]-N,N-ditetradecylacetamide). Relative activity was determined by measuring luciferase expression in the liver 4 hours following administration via tail vein injection as described in Example 1. The activity was compared at a dose of 0.3 and 1.0 mg mRNA/kg and expressed as ng luciferase/g liver measured 4 hours after administration, as described in Example 1.

[2] = test system: luciferase expression in the liver; assay: Luciferase mRNA in vivo evaluation using lipid nanoparticle compositions; set-up: species or system mice; settings: tail vein injection, liver 4 hours after administration, LNP 47.5/10/40.8/1.7; for Liver Luc @ 0.3 mg/kg (ng luc/g liver): 0.3 mg mRNA/kg; for Liver Luc @ 1.0 mg/kg (ng luc/g liver): 1.0 mg mRNA/kg
Procedure: A lipid of structure (I) or (II), DSPC, cholesterol and PEG-lipid were solubilized in ethanol at a molar ratio of 50:10:38.5:1.5 or 47.5:10:40.8:1.7. Lipid nanoparticles (LNP) were prepared at a total lipid to mRNA weight ratio of approximately 10:1 to 30:1. Briefly, the mRNA was diluted to 0.2 mg/mL in 10 to 50 mM citrate buffer, pH 4. Syringe pumps were used to mix the ethanolic lipid solution with the mRNA aqueous solution at a ratio of about 1:5 to 1:3 (vol/vol) with total flow rates above 15 mL/min. The ethanol was then removed and the external buffer replaced with PBS by dialysis. Finally, the lipid nanoparticles were filtered through a 0.2 µm pore sterile filter.
Studies were performed in 6-8 week old female C57BL/6 mice (Charles River) 8-10 week old CD-1 (Harlan) mice (Charles River) according to guidelines established by an institutional animal care committee (ACC) and the Canadian Council on Animal Care (CCAC). Varying doses of mRNA-lipid nanoparticle were systemically administered by tail vein injection and animals euthanized at a specific time point (e.g., 4 hours) post-administration. Liver and spleen were collected in pre-weighed tubes, weights determined, immediately snap frozen in liquid nitrogen and stored at −80° C. until processing for analysis.
For liver, approximately 50 mg was dissected for analyses in a 2 mL FastPrep tubes (MP Biomedicals, Solon Ohio). ¼″ ceramic sphere (MP Biomedicals) was added to each tube and 500 μL of Glo Lysis Buffer—GLB (Promega, Madison WI) equilibrated to room temperature was added to liver tissue. Liver tissues were homogenized with the FastPrep24 instrument (MP Biomedicals) at 2×6.0 m/s for 15 seconds. Homogenate was incubated at room temperature for 5 minutes prior to a 1:4 dilution in GLB and assessed using SteadyGlo Luciferase assay system (Promega). Specifically, 50 μL of diluted tissue homogenate was reacted with 50 μL of SteadyGlo substrate, shaken for 10 seconds followed by 5 minute incubation and then quantitated using a CentroXS^3 LB 960 luminometer (Berthold Technologies, Germany). The amount of protein assayed was determined by using the BCA protein assay kit (Pierce, Rockford, IL). Relative luminescence units (RLU) were then normalized to total μg protein assayed. To convert RLU to ng luciferase a standard curve was generated with QuantiLum Recombinant Luciferase (Promega).
The FLuc mRNA (L-6107) from Trilink Biotechnologies will express a luciferase protein, originally isolated from the firefly, photinus pyralis. FLuc is commonly used in mammalian cell culture to measure both gene expression and cell viability. It emits bioluminescence in the presence of the substrate, luciferin. This capped and polyadenylated mRNA is fully substituted with 5-methylcytidine and pseudouridine.
as §1

SMILES | pKa ([1]; structure (I) compounds) | pKa ([1]; structure (II) compounds) | Liver Luc @ 0.3 mg/kg (ng luc/g liver) ([2]; structure (I) compounds) | Liver Luc @ 1.0 mg/kg (ng luc/g liver) ([2]; structure (I) compounds) | Liver Luc @ 0.3 mg/kg (ng luc/g liver) ([2]; structure (II) compounds) | Liver Luc @ 1.0 mg/kg (ng luc/g liver) ([2]; structure (II) compounds)
CCCCCCCCC(CCCCCC)COC(=O)CCCCCN(CCCCCC(=O)OCC(CCCCCC)CCCCCCCC)CCCCC(=O)O (stereo not shown) [Compound I-2] | 5.57 |  |  |  |  | 
CCCCCCCCCN(CCO)C(=O)CCCCN(CCCCCC(=O)OCC(CCCCCC)CCCCCCCC)CCCCCC(=O)OCC(CCCCCC)CCCCCCCC (stereo not shown) [Compound I-6] | 6.32 |  | 580 ± 209 ng luc/g liver | 3290 ± 582 ng luc/g liver |  | 
CCCCCCCCC(CCCCCC)COC(=O)CCCCCCCN(CCCCCCCC(=O)OCC(CCCCCC)CCCCCCCC)CCCCC(=O)N(CCCO)CCCCCCCC (stereo not shown) [Compound I-12] | 6.01 |  | 413 ± 143 ng luc/g liver | 4002 ± 1573 ng luc/g liver |  | 
CCCCCCCCC(CCCCCC)COC(=O)CCCCCCCN(CCCCCCCC(=O)OCC(CCCCCC)CCCCCCCC)CCCCN(C)C(C)=O (stereo not shown) [II-5] |  | 6.8 |  |  | 146 ± 16 ng luc/g liver | 695 ± 278 ng luc/g liver
CCCCCCCC(=O)N(C)CCCN(CCCCCC(=O)OCC(CCCC)CCCCCC)CCCCCC(=O)OCC(CCCC)CCCCCC (stereo not shown) [II-14] |  | 5.63 |  |  | 128 ± 17 ng luc/g liver | 827 ± 537 ng luc/g liver

More lines, main results first:

pKa ([1]; structure (I) compounds) | pKa ([1]; structure (II) compounds) | SMILES | Liver Luc @ 0.3 mg/kg (ng luc/g liver) ([2]; structure (I) compounds) | Liver Luc @ 1.0 mg/kg (ng luc/g liver) ([2]; structure (I) compounds) | Liver Luc @ 0.3 mg/kg (ng luc/g liver) ([2]; structure (II) compounds) | Liver Luc @ 1.0 mg/kg (ng luc/g liver) ([2]; structure (II) compounds)
5.99 |  | CCCCCCCCNC(=O)CCCCN(CCCCCC(=O)OCC(CCCCCC)CCCCCCCC)CCCCCC(=O)OCC(CCCCCC)CCCCCCCC (stereo not shown) [Compound I-3] | 139 ± 43 ng luc/g liver | 1711 ± 507 ng luc/g liver |  | 
5.89 |  | CCCCCCCCC(CCCCCC)COC(=O)CCCCCCCN(CCCCCCCC(=O)OCC(CCCCCC)CCCCCCCC)CCCCC(=O)N(CC)CC (stereo not shown) [Compound I-11] | 228 ± 101 ng luc/g liver | 910 ± 454 ng luc/g liver |  | 
 | 5.95 | CCCCCCCCC(CCCCCC)COC(=O)CCCCCN(CCCCCC(=O)OCC(CCCCCC)CCCCCCCC)CCCCNC(=O)CCCCCCC (stereo not shown) [II-4] |  |  | 150 ± 59 ng luc/g liver | 1405 ± 306 ng luc/g liver
 | 6.08 | CCCCCCCCC(CCCCCC)COC(=O)CCCCCN(CCCCCC(=O)OCC(CCCCCC)CCCCCCCC)CCCN(CCCO)C(=O)CCCCCCC (stereo not shown) [II-16] |  |  | 93 ± 38 ng luc/g liver | 1312 ± 569 ng luc/g liver
